Experimental findings from patent US7998974B2, “Fused heterocyclic compounds and their use as sirtuin modulators” (Sirtris Pharmaceuticals, Inc., priority 2005, dated 2011) are described below.

This test concerns the target T1, SIRT1 (Homo sapiens, UniProt Q96EB6).
T1 sequence (Q96EB6 1-747): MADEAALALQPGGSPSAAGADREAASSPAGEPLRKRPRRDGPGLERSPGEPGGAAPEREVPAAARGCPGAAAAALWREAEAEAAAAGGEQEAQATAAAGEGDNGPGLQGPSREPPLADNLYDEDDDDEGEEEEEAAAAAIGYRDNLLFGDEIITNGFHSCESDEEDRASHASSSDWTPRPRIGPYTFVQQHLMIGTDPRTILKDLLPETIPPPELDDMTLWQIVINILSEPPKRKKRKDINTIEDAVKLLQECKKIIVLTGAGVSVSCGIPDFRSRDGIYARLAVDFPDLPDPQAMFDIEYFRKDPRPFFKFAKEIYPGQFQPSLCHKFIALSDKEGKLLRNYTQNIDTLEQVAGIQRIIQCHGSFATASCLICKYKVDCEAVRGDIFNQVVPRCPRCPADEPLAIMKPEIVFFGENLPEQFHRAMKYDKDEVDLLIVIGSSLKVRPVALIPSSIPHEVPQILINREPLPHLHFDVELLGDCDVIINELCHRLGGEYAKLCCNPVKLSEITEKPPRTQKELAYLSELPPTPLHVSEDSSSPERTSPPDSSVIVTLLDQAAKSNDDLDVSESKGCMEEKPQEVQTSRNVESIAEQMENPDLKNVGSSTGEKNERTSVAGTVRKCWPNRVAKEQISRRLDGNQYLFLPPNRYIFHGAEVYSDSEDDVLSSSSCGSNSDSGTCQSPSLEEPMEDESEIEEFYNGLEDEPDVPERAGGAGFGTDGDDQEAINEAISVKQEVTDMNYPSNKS
Put plainly: Fluorescence polarization or mass spectrometry based assay to identify modulators of SIRT1 activity.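 Further: deacetylation of a fluorophore-tagged p53-derived acetyl peptide by SIRT1, detected as fluorescence polarization after trypsin cleavage and streptavidin binding, compounds tested at 11 doses from 0.7 to 100 µM.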 Format: biochemical. The settings on record: activation of SIRT1 (Table 3); read-out: ED50 (the source's name). For orientation: Polarisation of emitted light reports the rotation of a fluorescent probe.
Consider `Cc1[nH]c2ccccc2c1/C=C(\C#N)c1nc2ccccc2[nH]1` [Compound 1], for which the EC50 fell in the range of 101 to 150 µM.

As to `O=C(Nc1cccc(-c2nc3ccccc3[nH]2)c1)c1cccnc1` [Compound 3], the EC50 is over 150 µM.

As to `Nc1ccc(C(=O)Nc2ccc3[nH]c(-c4ccccc4)nc3c2)cc1` [Compound 4], the EC50 is 51 to 100 µM.

For `Cc1csc(NC(=O)c2ccccc2C(=O)O)c1-c1nc2ccccc2s1` [Compound 6], the EC50 is under 50 µM.

Regarding `COc1ccccc1NC(=O)Nc1nn(C)c2cccc(OC)c12` [Compound 7], the EC50 is 101 to 150 µM.

Regarding `COc1cccc2c1c(NC(=O)c1cc3ccccc3s1)nn2C` [Compound 8], the EC50 is over 150 µM.

In the case of `N#C/C(=C\c1ccc(-c2ccc(C(=O)O)cc2)o1)c1nc2ccccc2[nH]1` [Compound 9], the EC50 was under 50 µM.

As for `COc1ccc2nc3s/c(=C\c4ccc(-c5ccc(Cl)c(C(=O)O)c5)o4)c(=O)n3c2c1` [Compound 10], the EC50 is under 50 µM.

In the case of `COc1cc(C(=O)Nc2cccc(-c3nc4ccccc4[nH]3)c2)cc(OC)c1OC` [Compound 11], the EC50 was in the range of 51 to 100 µM.

On to `N#CC(C(=O)c1cc2ccccc2o1)c1nc2ccccc2s1` (stereo not shown) [Compound 12], for which the EC50 was 51 to 100 µM.

Turning to `N#Cc1cc(Oc2nc3ccccc3s2)c(N2CCOCC2)cc1C#N` [Compound 13], the EC50 was in the range of 101 to 150 µM.

As for `Nc1ccc2nc(-c3ccc(-c4nc5ccc(N)cc5[nH]4)cc3)[nH]c2c1` [Compound 15], the EC50 was in the range of 51 to 100 µM.

As for `Nc1ccc2[nH]c(-c3cccc(-c4nc5cc(N)ccc5[nH]4)c3)nc2c1` [Compound 16], the EC50 was 51 to 100 µM.

On to `Cc1[nH]c2ccccc2c1/C=C/c1nc2ccccc2c(=O)[nH]1` [Compound 17], for which the EC50 was over 150 µM.

Take `Nc1ccc2[nH]c(/C=C/c3nc4cc(N)ccc4[nH]3)nc2c1` [Compound 18]: the EC50 lay within 51 to 100 µM.

On to `Cc1ccsc1/C=C(\C#N)c1nc2ccccc2[nH]1` [Compound 19], for which the EC50 lay in the range of 101 to 150 µM.

`COC(=O)c1[nH]c2cc(OC)c(OC)cc2c1NC(=O)c1cccs1` [Compound 20]: the EC50 was 101 to 150 µM.

Take `O=C(Nc1c(C(=O)O)[nH]c2ccc(Br)cc12)c1ccc(F)cc1` [Compound 21]: the EC50 fell in the range of 51 to 100 µM.

Take `COC(=O)c1[nH]c2cc(OC)c(OC)cc2c1NC(=O)c1cccc(OC)c1` [Compound 22]: the EC50 is over 150 µM.

On to `COc1cccc(C(=O)Nc2cccc(-c3cn4ccccc4n3)c2)c1` [Compound 23], for which the EC50 is over 150 µM.

Consider `COc1cc(/C=C(\C#N)c2nc3ccccc3[nH]2)cc(OC)c1OC` [Compound 24], for which the EC50 was in the range of 101 to 150 µM.

As to `O=C(Nc1cccc(-c2nc3ccccc3[nH]2)c1)c1ccco1` [Compound 25], the EC50 is 51 to 100 µM.

For the compound `Cc1cccc(-c2nc3c(C(=O)NC4CCC(N)CC4)cccn3c2NCc2ccccc2)c1` (stereo not shown) [Compound 26], the EC50 was 101 to 150 µM.

Take `CC(=O)Nc1ccc(-c2nc3c(C(=O)NC4CCC(N)CC4)cccn3c2NC2CCCCC2)cc1` (stereo not shown) [Compound 27]: the EC50 was 51 to 100 µM.

On to `CCCCNc1c(-c2ccc(OC)c([N+](=O)[O-])c2)nc2c(C(=O)NC(CC(=O)O)C3CCCCC3)cccn12` (stereo not shown) [Compound 28], for which the EC50 lay within 101 to 150 µM.

Regarding `COc1ccc(-c2nc3c(C(=O)NC(CC(=O)O)C4CCCCC4)cccn3c2NCc2ccccc2)cc1[N+](=O)[O-]` (stereo not shown) [Compound 31], the EC50 is over 150 µM.

As to `CCCCNc1c(-c2ccc(OC)c([N+](=O)[O-])c2)nc2c(C(=O)NCCCN)cccn12` [Compound 33], the EC50 lay in the range of 101 to 150 µM.

For the compound `COc1ccc(-c2nc3c(C(=O)NCCCN)cccn3c2NCc2ccccc2)cc1[N+](=O)[O-]` [Compound 34], the EC50 is 101 to 150 µM.

`CC(=O)Nc1ccc(-c2nc3c(C(=O)NCc4cccc(CN)c4)cccn3c2NCc2ccccc2)cc1` [Compound 35]: the EC50 is 51 to 100 µM.

`CC(=O)Nc1ccc(-c2nc3c(C(=O)NC(CC(=O)O)C4CCCCC4)cccn3c2NC(C)(C)C)cc1` (stereo not shown) [Compound 36]: the EC50 lay in the range of 101 to 150 µM.

In the case of `O=C(O)CC(NC(=O)c1cccn2c(NCc3ccccc3)c(-c3ccc4ccccc4c3)nc12)C1CCCCC1` (stereo not shown) [Compound 38], the EC50 was over 150 µM.

Consider `COc1ccc(-c2nc3cc(C(=O)NC(CC(=O)O)c4ccc(C)cc4)ccn3c2NC2CCCCC2)cc1OC` (stereo not shown) [Compound 39], for which the EC50 fell in the range of 101 to 150 µM.

As to `COc1ccc(-c2nc3cc(C(=O)NCc4cccc(CN)c4)ccn3c2NC2CCCCC2)cc1[N+](=O)[O-]` [Compound 40], the EC50 lay in the range of 101 to 150 µM.

With `CC(=O)Nc1ccc(-c2nc3c(C(=O)NC(C)C(=O)NCCCN4CCCC4=O)cccn3c2NCc2ccccc2)cc1` (stereo not shown) [Compound 41], the EC50 fell in the range of 101 to 150 µM.

Turning to `N#CCCNC(=O)CNC(=O)c1cccn2c(NCC3CCCO3)c(-c3ccc(Cl)cc3)nc12` (stereo not shown) [Compound 42], the EC50 is 51 to 100 µM.

Take `COc1ccc(-c2nc3c(C(=O)NC(C)C(=O)NCCC#N)cccn3c2NCC2CCCO2)cc1` (stereo not shown) [Compound 44]: the EC50 lay within 101 to 150 µM.

In the case of `COc1cccc(-c2nc3c(C(=O)NC(C)C(=O)NCCC#N)cccn3c2NC2CCCCC2)c1` (stereo not shown) [Compound 46], the EC50 fell in the range of 51 to 100 µM.

Regarding `CC(=O)Nc1ccc(-c2nc3c(C(=O)NCC(=O)NCCC#N)cccn3c2NCc2ccccc2)cc1` [Compound 47], the EC50 fell in the range of 51 to 100 µM.

As to `Cc1nn(C)c(Cl)c1-c1nc2c(C(=O)NC(C)C(=O)NCCC#N)cccn2c1NCc1ccccc1` (stereo not shown) [Compound 48], the EC50 lay within 101 to 150 µM.

`COCCNC(=O)c1cccn2c(NCc3ccccc3)c(-c3ccc(NC(=O)N4CCOCC4)cc3)nc12` [Compound 49]: the EC50 is 51 to 100 µM.

On to `COCCNC(=O)c1cccn2c(NCc3ccccc3)c(-c3ccc(NC(=O)c4ccco4)cc3)nc12` [Compound 50], for which the EC50 was over 150 µM.

Consider `COCCNC(=O)c1cccn2c(NCc3ccccc3)c(-c3ccc(NC(=O)C4CC4)cc3)nc12` [Compound 51], for which the EC50 lay within 51 to 100 µM.

Consider `CC(=O)NCCNC(=O)c1cccn2c(NCc3ccccc3)c(-c3ccc(NC(=O)c4ccco4)cc3)nc12` [Compound 52], for which the EC50 was in the range of 101 to 150 µM.

`O=C(NCCN1CCNC1=O)c1cccn2c(NCc3ccccc3)c(-c3ccc(NC(=O)N4CCOCC4)cc3)nc12` [Compound 53]: the EC50 was 101 to 150 µM.

Turning to `O=C(Nc1ccc(-c2nc3c(C(=O)NCCN4CCNC4=O)cccn3c2NCc2ccccc2)cc1)c1ccco1` [Compound 54], the EC50 is over 150 µM.

Turning to `Cc1cc(C(=O)Nc2ccc(-c3nc4c(C(=O)NCCN5CCNC5=O)cccn4c3NCc3ccccc3)cc2)no1` [Compound 55], the EC50 was over 150 µM.

As for `CCCCNc1c(-c2ccc(NC(=O)CC(C)C)cc2)nc2c(C(=O)NCCN3CCNC3=O)cccn12` [Compound 56], the EC50 was over 150 µM.

With `CC(C)CC(=O)Nc1ccc(-c2nc3c(C(=O)NCCN4CCNC4=O)cccn3c2NC(C)(C)C)cc1` [Compound 57], the EC50 is over 150 µM.

`O=C(NCCCN1CCCC1=O)c1cccn2c(NC3CCCCC3)c(-c3ccc(NC(=O)N4CCOCC4)cc3)nc12` [Compound 58]: the EC50 is under 50 µM.

As to `O=C(Nc1ccc(-c2nc3c(C(=O)NCCCN4CCCC4=O)cccn3c2NC2CCCCC2)cc1)c1ccco1` [Compound 59], the EC50 lay in the range of 101 to 150 µM.

Turning to `O=C(NCCCN1CCCC1=O)c1cccn2c(NC3CCCCC3)c(-c3ccc(NC(=O)C4CC4)cc3)nc12` [Compound 60], the EC50 was 51 to 100 µM.

As to `CCCCNc1c(-c2ccc(NC(=O)c3ccc(Cl)nc3)cc2)nc2c(C(=O)NCCCN3CCCC3=O)cccn12` [Compound 61], the EC50 was over 150 µM.
